The values that follow come from patent publication US9511058B2, “Methods for using carboxamide, sulfonamide and amine compounds” (Rigel Pharmaceuticals, Inc., priority 2010, dated 2016).

The target in the first assay is AMPK. Kind of assay: AMPK activation, enzyme-linked immunosorbent assay. It counts as biochemical. The note with it: compounds of Table 1 (Table 6).
Regarding `O=C(NC1CCN(C(=O)c2ccncc2)CC1)c1cc2cc(OC3CCN(c4ccc(C(F)(F)F)cc4)CC3)ccc2o1` [1-115, N-(1-isonicotinoylpiperidin-4-yl)-5-(1-(4-(trifluoromethyl)phenyl)piperidin-4-yloxy)benzofuran-2-carboxamide], the half-maximal effective concentration (EC50) (usually the concentration needed to bring the measured effect to its halfway point) was below 0.1 µM.

In turn, `O=C(NC1CCNCC1)c1cc2cc(OC3CCN(c4ccc(C(F)(F)F)cc4)CC3)ccc2o1` [1-86, N-(piperidin-4-yl)-5-(1-(4-(trifluoromethyl)phenyl)piperidin-4-yloxy)benzofuran-2-carboxamide] came in with a concentration for a half-maximal effect (EC50) above 10 µM.

For the molecule `N#Cc1ccc(CN2CCC(NC(=O)c3cc(OC4CCN(c5ccc(C(F)(F)F)cc5)CC4)ccn3)CC2)cc1` [1-28, N-(1-(4-cyanobenzyl)piperidin-4-yl)-4-(1-(4-(trifluoromethyl)phenyl)piperidin-4-yloxy)picolinamide], the EC50 is below 0.1 µM.

Take `N#Cc1ccc(CN2CCC(Oc3ccc4oc(C(=O)NC5CCN(Cc6ccncc6)CC5)cc4c3)CC2)cc1` [1-79, 5-(1-(4-cyanobenzyl)piperidin-4-yloxy)-N-(1-(pyridin-4-ylmethyl)piperidin-4-yl)benzofuran-2-carboxamide]: the EC50 fell in the range of 0.1 to 0.5 µM.

The molecule `Cc1c(C(=O)NC2CCN(Cc3ccccn3)CC2)oc2cc(OC3CCN(c4ccc(C(F)(F)F)cc4)CC3)ccc12` [1-68, 3-methyl-N-(1-(pyridin-2-ylmethyl)piperidin-4-yl)-6-(1-(4-(trifluoromethyl)phenyl)piperidin-4-yloxy)benzofuran-2-carboxamide] registered an EC50 below 0.1 µM.

Molecule `Cc1c(C(=O)NC2CCN(Cc3ccncc3)CC2)oc2cc(OC3CCN(c4ccc(C(F)(F)F)cc4)CC3)ccc12` [1-65, 3-methyl-N-(1-(pyridin-4-ylmethyl)piperidin-4-yl)-6-(1-(4-(trifluoromethyl)phenyl)piperidin-4-yloxy)benzofuran-2-carboxamide] registered an EC50 below 0.1 µM.

Still in this assay, the particulars now being: compounds of Table 2 (Table 7).
`O=C(NC1CCN(C(=O)c2ccncc2)CC1)c1ccc2[nH]c3c(c2c1)CN(Cc1ccc(C(F)(F)F)cc1)CC3` [2-51, N-(1-isonicotinoyl-piperidin-4-yl)-2-(4-(trifluoromethyl)benzyl)-2,3,4,5-tetrahydro-1H-pyrido [4,3-b]indole-8-carboxamide] registered an EC50 of 0.5 to 1 µM.

For the molecule `N#Cc1ccc(NC(=O)N2CCC(NC(=O)c3ccc4[nH]c5c(c4c3)CN(Cc3ccc(C(F)(F)F)cc3)CC5)CC2)cc1` [2-27, N-(1-(4-cyanophenyl-carbamoyl)piperidin-4-yl)-2-(4-(trifluoromethyl)benzyl)-2,3,4,5-tetrahydro-1H-pyrido [4,3-b]indole-8-carboxamide], the EC50 lay in the range of 1 to 5 µM.

Still in this assay, the particulars now being: compounds of Table 3 (Table 8).
As for `N#Cc1ccc(CN2CCC(NC(=O)c3cn4ccc(OC5CCN(c6ccc(C(F)(F)F)cc6)CC5)cc4n3)CC2)cc1` [3-18, N-(1-(4-cyanobenzyl)piperidin-4-yl)-7-(1-(4-(trifluoromethyl)phenyl)piperidin-4-yloxy)imidazo[1,2-a]pyridine-2-carboxamide], the EC50 was below 0.1 µM.

With `O=C(NC1CCN(Cc2cccnc2)CC1)c1ccc2c(c1)CN(Cc1ccc(F)cc1)CC2` [3-35, 2-(4-fluorobenzyl)-N-(1-(pyridin-3-ylmethyl)piperidin-4-yl)-1,2,3,4-tetrahydroisoquinoline-7-carboxamide], the EC50 is 1 to 10 µM.

The assay is the same for the next values; noted with them: compounds of Table 5 (Table 10).
In turn, `N#Cc1cccc(CN2CCC(Oc3cccc(C(=O)NC4CCN(Cc5ccccc5)CC4)c3)CC2)c1` [5-89, N-(1-benzylpiperidin-4-yl)-3-(1-(3-cyanobenzyl)piperidin-4-yloxy)benzamide] had a 50% effective concentration (EC50) of 1 to 10 µM.

In turn, `O=C(NC1CCN(Cc2ccccc2)CC1)c1ccc(OC2CCN(Cc3ccc(OC(F)(F)F)cc3)CC2)c(F)c1` [5-57, N-(1-benzylpiperidin-4-yl)-3-fluoro-4-(1-(4-(trifluoromethoxy)benzyl)piperidin-4-yloxy)benzamide] returned an EC50 below 1 µM.

`O=C(NC1CCN(Cc2ccccc2)CC1)c1ccc(OC2CCN(Cc3ccc(Cl)c(Cl)c3)CC2)c(Cl)c1` [5-84, N-(1-benzylpiperidin-4-yl)-3-chloro-4-(1-(3,4-dichlorobenzyl)piperidin-4-yloxy)benzamide] gave an EC50 below 1 µM.
